Data as given in patent US10471028B2, “Small molecule efflux pump inhibitors” (UNIVERSITY OF ROCHESTER, priority 2014, dated 2019).

Test system: A. baumannii strain 98-37-09
Assay: Cellular accumulation of minocycline (HPLC, triple-quadrupole MS)
Assay type: cell-based, Acinetobacter baumannii
Details: human serum with 0.5 μg mL^−1 minocycline plus test compound (0.5×MEC, 1×MEC), 48 hours
Method: High pressure liquid chromatography and triple-quadrupole mass spectrometry were used to measure the A. baumannii intracellular levels of minocycline during growth in human serum in the absence and presence of each putative efflux pump inhibitor. […] Cultures were incubated for 48 hours with shaking, at which point an aliquot was removed, serially diluted, and plated to determine the number of viable CFU per mixture. The remainder of the cells were pelleted by centrifugation at 900×g at 4° C., washed twice in PBS, mechanically lysed with a FastPrep cell disrupter (MP Biomedicals, Santa Ana, Calif.) for 20 seconds at 5 m s^−1 and the cellular debris was pelleted via centrifugation at 900×g and 4° C. The amount of minocycline present within the supernatant of ruptured cells was measured. Briefly, doxycycline (0.5 μg mL^−1) was first added to each supernatant to serve as an internal control to account for sample-to-sample preparation variability. The supernatant was then combined with acetonitrile (ACN) at a 1:10 ratio and centrifuged at 16,000×g, at 4° C., to collect minocycline and doxycycline. […] residual liquid was evaporated in a speed vacuum for 2 hours at 8,000×g. To quantify the amount of antibiotics retained, sample materials were suspended in 50% acetonitrile, filtered through a 0.2 μm low protein binding hydrophilic membrane (Millipore, Billerica, Mass.) then separated on Shimadzu high performance liquid chromatography instrument (Fisher Scientific) using a BetaBasic C18 reverse phase column (Thermo Scientific). Separation was carried out with two mobile phase solutions consisting of solution (A) water with 0.1% formic acid and solution (B) 100% ACN. The gradient profile of the chromatography runs was as follows: from 0 to 0.1 min 8% solution B, ramp step wise (37% to 60% solution B) from 0.1 to 6.5 min then holding for one minute before ramping down from 60% to 10% from 7.5 to 8 min. This was followed a hold at 10% solution B for one minute. […] The column was equilibrated in 8% solution B at 40° C. and the flow rate was set to 0.2 mL min^−1. Mass spectrometry analysis of fractions was carried out using a Thermo TSQ Quantum Ultra triple quadrupole mass spectrometer (Fisher Scientific). Data were analyzed using Xcalibur software (Thermo Scientific); the following parameters were used to detect minocycline and the internal control doxycycline: 458.208 m/z→282.971 m/z (collision energy=43, tube lens=119) for minocycline and 445.144 m/z→266.900 m/z (collision energy=39, tube lens=127) for doxycycline. Analysis of the raw data was conducted by using the area under the curve calculations with the Genesis algorithm to determine the concentration in each sample. The difference between the peak intensity and the y intercept of pre-established minocycline and doxycycline standard curves was divided by the slope of the standard curve to quantify the amount of minocycline within each sample. The total concentration of minocycline within each cell was calculated by normalizing to the number of cells within each corresponding culture.

| Compound | Minocylcine Per Cell (femtomoles cell^−1) |
| --- | --- |
| Nc1ccc(S(=O)(=O)Nc2ncccn2)cc1 [ST059447] | 4.52E−05 femtomoles cell^−1 |
| O=C1c2ccccc2C(=O)N1CCN1CCNCC1 [ST059581] | 5.64E−05 femtomoles cell^−1 |
| COc1cc(C(=O)Nc2ccccc2C(=O)NCC2CCCO2)cc(OC)c1OC (centres unmarked) [ST060053] | 1.78E−04 femtomoles cell^−1 |
| COC(=O)c1ccc(COc2ccc(-c3nnn[nH]3)cc2)cc1 [ST060272] | 3.67E−07 femtomoles cell^−1 |

Test system: A. baumannii strain 98-37-09
Assay: MEC determination: potentiation of minocycline toward serum grown A. baumannii
Assay type: cell-based, Acinetobacter baumannii
Details: 1×MEC of compound plus minocycline in serum, versus minocycline alone; plating
Method: The TimTec ActiProbe-25K diversity-set and Natural Product compound libraries (29,900 compounds total; TimTec, Newark, Del.) were initially screened for putative efflux pump inhibitors by identifying compounds that potentiated the antimicrobial property of a sub-inhibitory concentration of minocycline toward A. baumannii grown in human serum. To do so, A. baumannii strain 98-37-09 was grown for 16 hours in LB medium at 37° C. on a rotary shaker at 225 rpm. Approximately 1×10^5 CFU were then transferred to individual wells of a 96-well round-bottom plate (Corning Costar, Tewksbury, Mass.) containing 100 μL of human serum supplemented with of minocycline (0.5 μg mL^−1; 0.5× minimum inhibitory concentration in serum) and individual members of the Timtec ActiProbe or Natural product library (50 μM). Plates were then incubated at 37° C. for 48 hours. Growth was measured as a function of turbidity. Putative efflux pump inhibitors were identified as compounds that inhibited A. baumannii growth in human serum containing minocycline and were subsequently retested in triplicate, as indicated above. Untreated A. baumannii grown in serum supplemented with minocycline+/−PAβN served as positive and negative controls, respectively. […] Repeat testing in which well constituents were serial diluted and plated on LB agar plates validated that 85 compounds did indeed limit A. baumannii growth in serum supplemented with minocycline, reducing the number of viable colony forming units between 2-6 log cfu in comparison to minocycline alone treated cells.
The MEC was defined as the lowest concentration of test compound required to inhibit the growth of A. baumannii in serum in the presence of 0.5 μg ml^−1 minocycline. Plating confirmed that addition of 1×MEC of each compound elicited ≥1.9-log reduction in A. baumannii cells grown in serum supplemented with minocycline alone (see Table 1).

| Compound | Log-reduction Colony Forming Units (ml^−1) |
| --- | --- |
| Nc1ccc(S(=O)(=O)Nc2ncccn2)cc1 [ST059447] | 5.74 log |
| O=C1c2ccccc2C(=O)N1CCN1CCNCC1 [ST059581] | 6.12 log |
| COc1cc(C(=O)Nc2ccccc2C(=O)NCC2CCCO2)cc(OC)c1OC (centres unmarked) [ST060053] | 4.94 log |
| COC(=O)c1ccc(COc2ccc(-c3nnn[nH]3)cc2)cc1 [ST060272] | 6.90 log |

Same assay, conditions: lowest concentration inhibiting growth in 100% human serum with 0.5 μg ml^−1 minocycline, 48 hr

| Compound | MEC |
| --- | --- |
| Nc1ccc(S(=O)(=O)Nc2ncccn2)cc1 [ST059447] | 4 µg/mL |
| O=C1c2ccccc2C(=O)N1CCN1CCNCC1 [ST059581] | 32 µg/mL |
| COc1cc(C(=O)Nc2ccccc2C(=O)NCC2CCCO2)cc(OC)c1OC (centres unmarked) [ST060053] | 4 µg/mL |
| COC(=O)c1ccc(COc2ccc(-c3nnn[nH]3)cc2)cc1 [ST060272] | 32 µg/mL |

Test system: human HepG2 cells
Assay: MTT cell viability (cytotoxicity) assay
Details: not given
Method: To distinguish putatively non-toxic from human cytotoxic compounds, conventional 3-(4,5-dimethylthiazol-2yl)-2,5-diphenyltetrazolium bromide (MTT) cell viability assays (American Type Culture Collection, Manassas, Va.) were performed for each compound of interest at 1× and 4× their MEC. Briefly, human HepG2 cells were grown to approximately 1×10^6 cells per well in Dulbecco's Modified Eagle Media supplemented with 10% fetal bovine serum (Invitrogen, Carlsbad, Calif.) then treated with 1× or 4× the MEC of the indicated […] Cell viability was measured following the addition of the tetrazolium salt (MTT) as per the manufacturer's recommendations; cells challenged with 50 ug ml^−1 Mitomycin C (Sigma Aldrich) and mock-treated cells served as positive and negative controls, respectively.

| Compound | % Viability |
| --- | --- |
| Nc1ccc(S(=O)(=O)Nc2ncccn2)cc1 [ST059447] | 76.78% |
| O=C1c2ccccc2C(=O)N1CCN1CCNCC1 [ST059581] | 84.56% |
| COc1cc(C(=O)Nc2ccccc2C(=O)NCC2CCCO2)cc(OC)c1OC (centres unmarked) [ST060053] | 76.11% |
| COC(=O)c1ccc(COc2ccc(-c3nnn[nH]3)cc2)cc1 [ST060272] | 85.35% |

Test system: A. baumannii
Assay: Antibiotic susceptibility assay in LB medium or 100% human serum
Assay type: cell-based, Acinetobacter baumannii
Details: 4-16 μg ml^−1 tetracycline, LB
Method: The antibiotic susceptibility of A. baumannii and Pseudomonas aeruginosa grown in either LB medium or 100% human serum was measured according to the method described below. Briefly, the indicated bacterial species/strain was grown overnight in LB medium, diluted into fresh medium (1:100 dilution) and grown to mid-exponential phase (OD600nm=0.4 to 0.5) at 37° C. with aeration. […] To quantify the antimicrobial effects of each antibiotic toward bacteria grown in LB or serum, well constitutes were serially diluted in PBS and plated on LB agar to enumerate the CFU mL^−1.

| Compound | cell viability, LB grown |
| --- | --- |
| CN(C)[C@@H]1C(O)=C(C(N)=O)C(=O)[C@@]2(O)C(O)=C3C(=O)c4c(O)cccc4[C@@](C)(O)[C@H]3C[C@@H]12 [tetracycline] | < 1×10^1 colony forming units |

Same assay, conditions: strain 01-12-05, LB medium

| Compound | concentration with clear antimicrobial activity |
| --- | --- |
| CN(C)c1cc(NC(=O)CNC(C)(C)C)c(O)c2c1C[C@H]1C[C@H]3[C@H](N(C)C)C(O)=C(C(N)=O)C(=O)[C@@]3(O)C(O)=C1C2=O [tigecycline] | ≥ 1 µg/mL |

Same assay, conditions: strain 01-12-05, addition of efflux pump inhibitor

| Compound | restoration of tigecycline susceptibility in serum |
| --- | --- |
| COC(=O)[C@H]1[C@H]2C[C@@H]3c4[nH]c5cc(OC)ccc5c4CCN3C[C@H]2C[C@@H](OC(=O)c2cc(OC)c(OC)c(OC)c2)[C@@H]1OC [reserpine] | partially restored |

Same assay, conditions: strain 01-12-05, human serum

| Compound | susceptibility during growth in serum |
| --- | --- |
| CN(C)c1cc(NC(=O)CNC(C)(C)C)c(O)c2c1C[C@H]1C[C@H]3[C@H](N(C)C)C(O)=C(C(N)=O)C(=O)[C@@]3(O)C(O)=C1C2=O [tigecycline] | highly-resistant |

Same assay, conditions: strain 98-37-09, ciprofloxacin ≤1 μg ml^−1

| Compound | susceptibility of serum grown versus LB grown cells |
| --- | --- |
| O=C(O)c1cn(C2CC2)c2cc(N3CCNCC3)c(F)cc2c1=O [ciprofloxacin] | significantly (P<0.001) less susceptible |

Same assay, conditions: strain 98-37-09, serum supplemented with efflux pump inhibitor

| Compound | restoration of ciprofloxacin susceptibility in serum |
| --- | --- |
| COC(=O)[C@H]1[C@H]2C[C@@H]3c4[nH]c5cc(OC)ccc5c4CCN3C[C@H]2C[C@@H](OC(=O)c2cc(OC)c(OC)c(OC)c2)[C@@H]1OC [reserpine] | Ciprofloxacin susceptibility could be restored |

Test system: A. baumannii strain 98-37-09
Assay: Potentiation of ciprofloxacin toward serum grown A. baumannii
Assay type: cell-based, Acinetobacter baumannii
Details: 100% human serum, 0.125 μg ml^−1 ciprofloxacin, 1× or 2× MEC, 48 hour, growth inhibition
Source text: As a means to further prioritize non-toxic compounds of interest based on their therapeutic promise, it was considered that broad spectrum antimicrobial efflux pump inhibitors may be more clinically valuable than narrow-spectrum agents that only potentiate the activity of a limited number of antibiotics or that display activity toward a single bacterial species. […] To do so, 1×10^5 A. baumannii strain 98-37-09 were inoculated into individual wells of microtiter plates containing 100% human serum supplemented with 0.125 μg ml^−1 ciprofloxacin and 0, 1×, or 2× the compound's MEC, as defined by the lowest concentration needed to potentiated minocycline's antimicrobial effects (above). Plates were incubated for 48 hour at which point each compound's ability to potentiate ciprofloxacin was measured, as growth inhibition.

| Compound | Potentiate Ciprofloxacin A. baumannii |
| --- | --- |
| Nc1ccc(S(=O)(=O)Nc2ncccn2)cc1 [ST059447] | No |
| O=C1c2ccccc2C(=O)N1CCN1CCNCC1 [ST059581] | No |
| COc1cc(C(=O)Nc2ccccc2C(=O)NCC2CCCO2)cc(OC)c1OC (centres unmarked) [ST060053] | No |
| COC(=O)c1ccc(COc2ccc(-c3nnn[nH]3)cc2)cc1 [ST060272] | No |
